Test results as given in ChEMBL document CHEMBL1143365, “Function-oriented synthesis applied to the anti-botulinum natural product toosendanin” (Bioorg Med Chem, 2009).
Active and inactive are the calls of the source. No cut-off for these calls is given here.

What was measured:
Mus musculus [1] = test: Antibotulinum activity against botulinum neurotoxin serotype A-induced toxicity in iv dosed mouse after 48 hrs; type: functional, organism-based
Mus musculus [2] = organism: Mus musculus; test: Toxicity in mouse at 2.5 mM; type: organism-based; details: in vivo, 2500 µM
Mus musculus [3] = test: Antibotulinum activity against botulinum neurotoxin serotype A-induced toxicity in iv dosed mouse assessed as time to death; type: functional

SMILES | Activity (Mus musculus [1]) | Activity (Mus musculus [2]) | Activity (Mus musculus [3])
CC(=O)OC1C(=O)CC(C)(C)C23OC2CC(c2ccccc2)C13C (racemic) | inactive | Non-toxic | 
CC(=O)O[C@@H]1C[C@H](O)[C@@]23CO[C@@H](O)[C@]1(C)[C@@H]2C[C@@H](O)[C@]1(C)[C@@H]3C(=O)[C@H](OC(C)=O)[C@@]2(C)[C@H](c3ccoc3)C[C@H]3O[C@]321 [TOOSENDANIN] |  |  | 7.1 h
